From PMC7497412 (RSC Advances, 2020)
Converted amounts (≈) assume the structure as drawn.

Assays:
Assay in all cases: microbe, parasite or virus in culture
Type in all cases: cell-based
M. tb TF274/XDR = settings: Mycobacterium tuberculosis, read-out: M. tb MIC TF274/XDR
M. tb KZN494/MDR = settings: Mycobacterium tuberculosis, read-out: M. tb MIC KZN494/MDR
M. tb V2475/MDR = settings: Mycobacterium tuberculosis, read-out: M. tb MIC V2475/MDR
M. tb R506/XDR = settings: Mycobacterium tuberculosis, read-out: M. tb MIC R506/XDR

SMILES: O=C(Nc1nc(-c2ccc(Cl)cc2Cl)cs1)C12CC3CC(CC(C3)C1)C2 [18b, N-(4-(2,4-Dichlorophenyl)thiazol-2-yl)adamantane-1-carboxamide]
- MIC (M. tb TF274/XDR): 4.91 µM (≈ 2 µg/mL)
- MIC (M. tb KZN494/MDR): 9.82 µM (≈ 4 µg/mL)
- MIC (M. tb V2475/MDR): 19.6 µM (≈ 8 µg/mL)
- MIC (M. tb R506/XDR): 4.91 to 9.82 µM (≈ 2 to 4 µg/mL)

SMILES: O=C(NC12CC3CC(CC(C3)C1)C2)c1cc(=O)c2c(Br)cccc2[nH]1 [8i, N-(1-Adamantanyl)-5-bromo-4-oxo-1,4-dihydroquinoline-2-carboxamide]
- MIC (M. tb TF274/XDR): 4.98 µM (≈ 2 µg/mL)
- MIC (M. tb KZN494/MDR): 9.97 µM (≈ 4 µg/mL)
- MIC (M. tb V2475/MDR): 9.97 µM (≈ 4 µg/mL)
- MIC (M. tb R506/XDR): 4.98 µM (≈ 2 µg/mL)

SMILES: O=C(NC12CC3CC(CC(C3)C1)C2)c1ccc2ccccc2c1 [13d, N-(1-Adamantanyl)-2-naphthamide]
- MIC (M. tb TF274/XDR): 3.27 µM (≈ 0.999 µg/mL)
- MIC (M. tb KZN494/MDR): 6.55 to 13.1 µM (≈ 2 to 4 µg/mL)
- MIC (M. tb V2475/MDR): 6.55 µM (≈ 2 µg/mL)
- MIC (M. tb R506/XDR): 3.27 µM (≈ 0.999 µg/mL)

SMILES: O=C(NC1CCCCCCC1)c1ccc2ccccc2c1 [13c, N-Cyclooctyl-2-naphthamide]
- MIC (M. tb TF274/XDR): 3.55 µM (≈ 0.999 µg/mL)
- MIC (M. tb KZN494/MDR): 7.11 µM (≈ 2 µg/mL)
- MIC (M. tb V2475/MDR): 7.11 µM (≈ 2 µg/mL)
- MIC (M. tb R506/XDR): 3.55 µM (≈ 0.999 µg/mL)
